The values that follow come from patent US20230073777A1, “CYCLIC-AMP RESPONSE ELEMENT BINDING PROTEIN (CBP) AND/OR ADENOVIRAL E1A BINDING PROTEIN OF 300 KDA (P300) DEGRADATION COMPOUNDS AND METHODS OF USE” (CULLGEN (SHANGHAI), INC., priority 2019, published 2023).

“Also recorded” adds a separate entry of the source. Like-named read-outs stand apart in the source and are kept apart here. A value given as a limit tells only on which side of the number the result lay.

The test system of one assay is LNCaP cells. The experiment in a line: LNCaP cell viability assay (CellTiter-Glo). The format is cell-based. The following applies: Homo sapiens, 72 h, LNCaP prostate cancer cell viability inhibition, 3 days. In short, it runs like this: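 LNCaP cells, 5000/well, exposed to compounds in 12-point 3-fold serial dilution (top 10 μM) for 3 days. Viability by CellTiter-Glo luminescence, normalized to untreated cells; IC50 by least-squares nonlinear regression.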

A further assay relates to P300/CBP. The experiment in a line: Immunoblotting of P300/CBP protein levels in LNCaP or 22RV1 cells. The format is cell-based. The following applies: LNCaP cells, 10 nM single dose (FIG. 8). The protocol: Specific exemplary bivalent compounds were characterized in LNCaP or 22RV1 cells. LNCaP or 22RV1 cells that express CBP/P300 proteins were treated with GNE-781 or the bivalent compounds disclosed herein (P-001 to P-174) for indicated hours. Cells were collected, lysed and subject to immunoblotting using an antibody specific to P300 or CBP proteins. Tubulin or vinculin was included as the loading control. DMSO was used as the negative control.
Cultured cells or tissue chunks were washed with cold PBS once and lysed in cold RIPA buffer supplemented with protease inhibitors and phosphatase inhibitors (Beyotime Biotechnology). The solutions were then incubated at 4° C. for 30 minutes with gentle agitation to fully lyse cells. Cell lysates were centrifuged at 13,000 rpm for 10 minutes at 4° C. and pellets were discarded. Total protein concentrations in the lysates were determined by BCA assays (Beyotime Biotechnology). Cell lysates were mixed with Laemmli loading buffer to 1× and heated at 99° C. for 5 min. Proteins were resolved on SDS-PAGE and visualized by chemiluminescence. Images were taken by a ChemiDoc MP Imaging system (Bio-Rad). Protein bands were quantitated using the accompanied software provided by Bio-Rad.

Another assay has as its target T1, CBP (Homo sapiens, UniProt Q92793).
T1 construct: from tissue; host or cells: 22RV1 subcutaneous xenograft tumours in athymic nude mice
Put plainly: Pharmacodynamic study, CBP in 22RV1 subcutaneous xenograft tumors. The format is in vivo, Athymic nude mice. Particulars: single dose 40 mg/kg, i.p. or p.o., six hours after administration (FIG. 9). The protocol:
(§1) In addition to cultured cells, athymic nude mice bearing 22RV1 subcutaneous xenograft tumors at the right flank were intraperitoneally or orally treated with 40 mg/kg bivalent compounds. Six hours after drug administration, animals were sacrificed for immunoblotting of P300 and CBP in homogenized xenograft tumor masses. […] Moreover, ICR mice were orally treated with 40 mg/kg bivalent compounds. Six hours after drug administration, animals were sacrificed for immunoblotting of CBP in homogenized lung tissues.
(§2) Athymic nude mice bearing 22RV1 subcutaneous xenograft tumors at the right flank were intraperitoneally or orally treated with selected bivalent compounds at 40 mg/kg. Six hours after drug administration, animals were sacrificed, and xenograft tumors were collected for immunoblotting of P300 and CBP.
(§3) All animal experiments were performed under protocols approved by the Institutional Animal Care and Use Committee (IACUC) of Cullgen. Athymic nude mice (male, 5-weeks old) received 5 million 22RV1 cells subcutaneously inoculated at the right flank site. Twenty days following inoculation, tumors were approximately 500 mm^3 in size. Tumor-bearing mice were treated intraperitoneally or via oral gavage with vehicle or bivalent compounds at indicated doses. 6 hours after drug administration, animals were sacrificed, tumors were resected. Small chunks of tumors were homogenized for immunoblotting of P300/CBP and other proteins as indicated. Alternatively, ICR mice (male, 5-weeks old) were treated via oral gavage with vehicle or bivalent compounds at indicated doses. 6 hours after drug administration, animals were sacrificed, lung tissues were resected. Small chunks of lung tissues were homogenized for immunoblotting of CBP and other proteins as indicated.

Assay [1] concerns the target T2, P300 (Homo sapiens, UniProt Q09472). Put plainly: Pharmacodynamic study, P300 in 22RV1 subcutaneous xenograft tumors. Particulars: single dose 40 mg/kg, i.p. or p.o., six hours after administration (FIG. 9). Format: in vivo, Athymic nude mice. Also on record: from tissue; host or cells: 22RV1 subcutaneous xenograft tumours in athymic nude mice. As to the method:
as §1, §2, §3

For assay [2], the target named is T2, P300. Put plainly: Immunoblotting of P300 protein levels in LNCaP or 22RV1 cells. Format: cell-based. Set-up: LNCaP or 22RV1 cells that express CBP/P300 proteins were treated with GNE-781 or the bivalent compounds; endogenous in cells; host or cells: LNCaP (clone FGC) or 22RV1 cells. The following applies: for inhibition at 0.01 µM: read-out: Degradation (10 nM). The procedure, abridged:
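LNCaP or 22RV1 cells treated with compounds for indicated hours, DMSO as negative control. RIPA lysates resolved by SDS-PAGE and immunoblotted for P300 or CBP, tubulin or vinculin as loading control; chemiluminescent bands quantitated.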

[3] abbreviates: percentage of inhibition of p300 at 10 nM (Table 3).
The mark [4] stands for this setting: percentage of inhibition of p300 at 10 nM (Table 2).

T2 sequence (Q09472 whole entry): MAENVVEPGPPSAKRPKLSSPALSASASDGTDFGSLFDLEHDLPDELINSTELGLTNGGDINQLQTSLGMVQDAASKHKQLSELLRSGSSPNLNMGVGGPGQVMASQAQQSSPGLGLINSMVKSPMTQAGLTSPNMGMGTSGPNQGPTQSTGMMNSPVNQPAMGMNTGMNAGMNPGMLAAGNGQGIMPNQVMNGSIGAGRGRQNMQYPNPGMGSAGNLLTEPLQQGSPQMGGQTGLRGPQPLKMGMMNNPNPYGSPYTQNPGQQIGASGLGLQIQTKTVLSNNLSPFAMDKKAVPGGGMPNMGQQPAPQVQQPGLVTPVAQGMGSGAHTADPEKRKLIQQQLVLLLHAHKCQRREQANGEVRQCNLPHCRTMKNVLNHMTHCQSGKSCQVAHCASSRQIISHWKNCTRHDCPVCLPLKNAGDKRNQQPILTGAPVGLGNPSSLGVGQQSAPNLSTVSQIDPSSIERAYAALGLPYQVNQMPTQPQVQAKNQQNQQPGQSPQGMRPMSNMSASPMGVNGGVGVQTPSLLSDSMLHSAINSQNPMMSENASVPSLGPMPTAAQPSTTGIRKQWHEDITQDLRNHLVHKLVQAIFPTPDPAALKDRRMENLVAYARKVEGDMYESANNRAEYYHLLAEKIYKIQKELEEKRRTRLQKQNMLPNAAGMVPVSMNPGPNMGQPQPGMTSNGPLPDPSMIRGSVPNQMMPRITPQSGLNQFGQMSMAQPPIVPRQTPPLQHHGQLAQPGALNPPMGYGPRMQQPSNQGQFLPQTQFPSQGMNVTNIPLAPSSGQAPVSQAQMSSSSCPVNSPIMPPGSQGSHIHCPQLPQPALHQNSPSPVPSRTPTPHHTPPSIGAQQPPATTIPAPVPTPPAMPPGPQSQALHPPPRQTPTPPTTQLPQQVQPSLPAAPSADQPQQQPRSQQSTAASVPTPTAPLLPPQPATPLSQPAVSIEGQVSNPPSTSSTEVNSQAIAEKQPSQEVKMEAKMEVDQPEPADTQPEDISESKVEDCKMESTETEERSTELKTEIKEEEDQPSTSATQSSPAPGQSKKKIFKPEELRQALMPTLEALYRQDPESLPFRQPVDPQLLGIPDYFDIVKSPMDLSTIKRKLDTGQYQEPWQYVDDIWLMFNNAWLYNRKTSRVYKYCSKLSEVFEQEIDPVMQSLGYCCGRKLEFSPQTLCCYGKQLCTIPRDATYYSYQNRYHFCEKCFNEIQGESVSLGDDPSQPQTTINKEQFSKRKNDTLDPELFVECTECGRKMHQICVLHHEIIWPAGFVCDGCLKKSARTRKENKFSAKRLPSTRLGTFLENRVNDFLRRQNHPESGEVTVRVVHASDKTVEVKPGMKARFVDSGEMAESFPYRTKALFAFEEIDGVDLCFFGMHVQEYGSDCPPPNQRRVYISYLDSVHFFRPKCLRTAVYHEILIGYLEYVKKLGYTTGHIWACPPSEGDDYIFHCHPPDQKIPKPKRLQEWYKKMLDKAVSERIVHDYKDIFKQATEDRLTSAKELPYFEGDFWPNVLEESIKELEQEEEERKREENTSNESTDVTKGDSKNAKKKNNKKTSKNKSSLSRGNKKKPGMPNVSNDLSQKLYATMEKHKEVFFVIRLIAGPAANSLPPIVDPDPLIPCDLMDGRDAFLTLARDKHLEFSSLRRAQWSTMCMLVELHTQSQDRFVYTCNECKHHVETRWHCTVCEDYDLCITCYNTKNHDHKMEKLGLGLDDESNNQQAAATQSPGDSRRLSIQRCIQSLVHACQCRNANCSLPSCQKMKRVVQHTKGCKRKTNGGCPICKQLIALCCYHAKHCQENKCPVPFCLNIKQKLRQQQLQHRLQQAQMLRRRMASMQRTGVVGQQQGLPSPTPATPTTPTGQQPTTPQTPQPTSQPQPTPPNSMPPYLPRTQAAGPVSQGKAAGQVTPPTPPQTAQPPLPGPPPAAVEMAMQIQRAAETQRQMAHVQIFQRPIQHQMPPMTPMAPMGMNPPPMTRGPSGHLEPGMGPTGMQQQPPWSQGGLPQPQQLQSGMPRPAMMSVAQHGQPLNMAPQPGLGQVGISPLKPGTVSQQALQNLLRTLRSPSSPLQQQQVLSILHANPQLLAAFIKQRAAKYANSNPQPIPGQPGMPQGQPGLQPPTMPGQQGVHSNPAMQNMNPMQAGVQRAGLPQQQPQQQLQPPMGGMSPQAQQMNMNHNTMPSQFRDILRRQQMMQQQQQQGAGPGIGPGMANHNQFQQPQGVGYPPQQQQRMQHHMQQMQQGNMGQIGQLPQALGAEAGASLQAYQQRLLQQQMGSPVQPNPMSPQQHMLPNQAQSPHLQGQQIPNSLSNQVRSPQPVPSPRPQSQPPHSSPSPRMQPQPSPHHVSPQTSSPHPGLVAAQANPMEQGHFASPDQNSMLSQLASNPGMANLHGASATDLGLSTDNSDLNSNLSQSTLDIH
T1 sequence (Q92793 whole entry): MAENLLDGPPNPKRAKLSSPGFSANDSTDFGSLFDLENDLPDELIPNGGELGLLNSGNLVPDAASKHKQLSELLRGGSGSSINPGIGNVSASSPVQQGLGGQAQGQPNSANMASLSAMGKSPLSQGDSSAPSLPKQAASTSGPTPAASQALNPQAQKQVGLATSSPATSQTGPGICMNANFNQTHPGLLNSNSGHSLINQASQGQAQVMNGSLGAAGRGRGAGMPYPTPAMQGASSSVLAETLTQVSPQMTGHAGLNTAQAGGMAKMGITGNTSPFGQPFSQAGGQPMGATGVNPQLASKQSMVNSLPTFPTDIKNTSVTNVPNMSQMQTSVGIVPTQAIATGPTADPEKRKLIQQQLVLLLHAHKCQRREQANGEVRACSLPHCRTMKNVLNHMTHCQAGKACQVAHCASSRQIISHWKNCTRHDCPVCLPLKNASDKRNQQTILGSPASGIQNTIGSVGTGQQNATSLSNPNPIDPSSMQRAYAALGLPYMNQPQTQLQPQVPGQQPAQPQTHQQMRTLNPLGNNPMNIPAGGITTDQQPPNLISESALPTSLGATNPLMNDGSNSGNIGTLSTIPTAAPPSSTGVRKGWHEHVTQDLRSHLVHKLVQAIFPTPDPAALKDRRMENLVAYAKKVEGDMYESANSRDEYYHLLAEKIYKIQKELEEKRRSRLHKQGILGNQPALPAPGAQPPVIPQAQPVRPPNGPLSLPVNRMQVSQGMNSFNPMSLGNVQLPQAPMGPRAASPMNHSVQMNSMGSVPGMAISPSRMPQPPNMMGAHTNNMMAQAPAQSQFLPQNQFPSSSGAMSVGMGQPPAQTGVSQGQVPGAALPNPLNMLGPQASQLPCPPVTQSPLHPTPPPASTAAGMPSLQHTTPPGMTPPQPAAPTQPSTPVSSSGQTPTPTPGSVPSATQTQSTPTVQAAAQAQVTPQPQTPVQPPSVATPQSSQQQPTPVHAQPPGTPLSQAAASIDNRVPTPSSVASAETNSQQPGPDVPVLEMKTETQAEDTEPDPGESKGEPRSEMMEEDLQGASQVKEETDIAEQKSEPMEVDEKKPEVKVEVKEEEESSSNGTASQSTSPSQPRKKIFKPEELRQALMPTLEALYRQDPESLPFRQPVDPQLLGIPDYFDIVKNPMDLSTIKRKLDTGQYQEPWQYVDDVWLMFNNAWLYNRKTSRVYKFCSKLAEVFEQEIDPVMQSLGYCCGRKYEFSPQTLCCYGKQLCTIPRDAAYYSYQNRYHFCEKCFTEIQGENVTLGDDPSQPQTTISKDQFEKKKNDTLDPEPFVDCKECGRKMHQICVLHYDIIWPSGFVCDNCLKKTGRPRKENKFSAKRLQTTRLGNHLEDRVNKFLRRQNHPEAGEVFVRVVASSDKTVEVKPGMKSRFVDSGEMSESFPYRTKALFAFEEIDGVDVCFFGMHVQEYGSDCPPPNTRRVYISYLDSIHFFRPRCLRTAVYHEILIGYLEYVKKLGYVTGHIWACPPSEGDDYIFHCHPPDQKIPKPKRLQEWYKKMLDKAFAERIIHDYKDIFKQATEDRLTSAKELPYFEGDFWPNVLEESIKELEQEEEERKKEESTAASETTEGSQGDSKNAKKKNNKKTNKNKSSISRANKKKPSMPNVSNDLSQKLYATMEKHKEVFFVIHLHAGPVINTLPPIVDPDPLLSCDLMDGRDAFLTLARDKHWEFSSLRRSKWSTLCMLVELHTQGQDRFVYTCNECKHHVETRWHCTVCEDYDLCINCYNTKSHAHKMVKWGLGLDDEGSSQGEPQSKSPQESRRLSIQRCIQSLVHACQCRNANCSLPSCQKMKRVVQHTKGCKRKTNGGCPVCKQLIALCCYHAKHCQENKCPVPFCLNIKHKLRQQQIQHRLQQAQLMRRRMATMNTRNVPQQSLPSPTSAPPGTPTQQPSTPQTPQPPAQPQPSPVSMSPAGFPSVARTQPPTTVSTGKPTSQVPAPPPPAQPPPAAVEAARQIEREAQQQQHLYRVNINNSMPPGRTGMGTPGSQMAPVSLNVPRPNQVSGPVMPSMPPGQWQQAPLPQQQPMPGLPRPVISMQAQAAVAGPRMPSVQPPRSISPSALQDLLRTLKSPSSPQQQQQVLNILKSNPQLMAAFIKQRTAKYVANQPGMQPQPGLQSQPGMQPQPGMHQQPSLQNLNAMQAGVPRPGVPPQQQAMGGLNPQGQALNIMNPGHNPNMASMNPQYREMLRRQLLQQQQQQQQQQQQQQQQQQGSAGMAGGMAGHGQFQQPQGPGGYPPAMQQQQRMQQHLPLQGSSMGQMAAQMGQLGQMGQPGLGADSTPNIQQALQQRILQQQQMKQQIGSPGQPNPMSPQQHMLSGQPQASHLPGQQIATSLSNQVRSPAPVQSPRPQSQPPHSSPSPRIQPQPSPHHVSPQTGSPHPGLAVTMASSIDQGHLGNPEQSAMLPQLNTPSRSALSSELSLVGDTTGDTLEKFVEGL

`CC(=O)N1CCc2c(c(N3CCCc4cc(-c5cnn(C)c5)c(C(F)F)cc43)nn2C2CCN(C(=O)CCCCCNc3cccc4c3C(=O)N(C3CCC(=O)NC3=O)C4=O)CC2)C1` (centres unmarked) [P-100, 4-((6-(4-(5-acetyl-3-(7-(difluoromethyl)-6-(1-methyl-1H-pyrazol-4-yl)-3,4-dihydroquinolin-1(2H)-yl)-4,5,6,7-tetrahydro-1H-pyrazolo[4,3-c]pyridin-1-yl)piperidin-1-yl)-6-oxohexyl)amino)-2-(2,6-dioxopiperidin-3-yl)isoindoline-1,3-dione] had a half-maximal inhibitory concentration (IC50) with LNCaP cells (CellTiter-Glo (Table 3)) of 0.0009 µM. Also, the “degradation of P300/CBP in combination with pomalidomide, MG-132, Bortezomib or MLN4924” value in the assay on P300/CBP is listed as “compromised; also recorded: neutralized”. Besides, the “CBP protein levels in 22RV1 xenograft tumors” value at CBP is given as “significantly reducing”. On P300 [1], the “P300 protein levels in 22RV1 xenograft tumors” value is reported as “significantly reducing”. Further, the “P300 protein levels, dependence on interaction with cereblon” value at P300 [2] (LNCaP or 22RV1 cells, various concentrations (FIG. 7)) is “reduced P300 protein levels in a concentration-dependent manner”. The inhibition at 0.01 µM on P300 [2] (setting [3]) was more than 80%.

On to `CNC(=O)N1CCc2c(c(N3CCCc4cc(-c5cnn(CC(=O)NCCOCCOCCC(=O)N[C@H](C(=O)N6C[C@H](O)C[C@H]6C(=O)NCc6ccc(-c7scnc7C)cc6)C(C)(C)C)c5)c(C(F)F)cc43)nn2C2CCOCC2)C1` [P-075, 3-(7-(Difluoromethyl)-6-(1-((S)-14-((2S,4R)-4-hydroxy-2-((4-(4-methylthiazol-5-yl)benzyl)carbamoyl)pyrrolidine-1-carbonyl)-15,15-dimethyl-2,12-dioxo-6,9-dioxa-3,13-diazahexadecyl)-1H-pyrazol-4-yl)-3,4-dihydroquinolin-1(2H)-yl)-N-methyl-1-(tetrahydro-2H-pyran-4-yl)-1,4,6,7-tetrahydro-5H-pyrazolo[4,3-c]pyridine-5-carboxamide], for which the IC50 in the assay on LNCaP cells (CellTiter-Glo (Table 3)) was more than 10 µM. Moreover, at P300 [2] (setting [3]), the inhibition at 0.01 µM is less than 20%.

In the case of `CC(=O)N1CCc2c(c(N3CCCc4cc(-c5cnn(C)c5)c(C(F)F)cc43)nn2C2CCN(C(=O)CN3CCOC(CCNc4cccc5c4C(=O)N(C4CCC(=O)NC4=O)C5=O)C3)CC2)C1` (centres unmarked) [P-172, 4-((2-(4-(2-(4-(5-Acetyl-3-(7-(difluoromethyl)-6-(1-methyl-1H-pyrazol-4-yl)-3,4-dihydroquinolin-1(2H)-yl)-4,5,6,7-tetrahydro-1H-pyrazolo[4,3-c]pyridin-1-yl)piperidin-1-yl)-2-oxoethyl)morpholin-2-yl)ethyl)amino)-2-(2,6-dioxopiperidin-3-yl)isoindoline-1,3-dione], the half-inhibitory concentration (IC50) in the assay with LNCaP cells (CellTiter-Glo (Table 3)) stood at 0.0569 µM. On P300 [2] (setting [3]), the inhibition at 0.01 µM lay within 20 to 50%.

With `CC(=O)N1CCc2c(c(N3CCCc4cc(-c5cnn(C)c5)c(C(F)F)cc43)nn2C2CCN(C(=O)CCCC3CN(c4cccc5c4C(=O)N(C4CCC(=O)NC4=O)C5=O)C3)CC2)C1` (centres unmarked) [P-146, 4-(3-(4-(4-(5-acetyl-3-(7-(difluoromethyl)-6-(1-methyl-1H-pyrazol-4-yl)-3,4-dihydroquinolin-1(2H)-yl)-4,5,6,7-tetrahydro-1H-pyrazolo[4,3-c]pyridin-1-yl)piperidin-1-yl)-4-oxobutyl)azetidin-1-yl)-2-(2,6-dioxopiperidin-3-yl)isoindoline-1,3-dione], the concentration for half-maximal inhibition (IC50) in the assay on LNCaP cells (CellTiter-Glo (Table 3)) was 0.002 µM. Besides, the inhibition at 0.01 µM on P300 [2] (setting [3]) is more than 80%.

Compound `CNC(=O)N1CCc2c(c(N3CCCc4cc(-c5cnn(C)c5)c(C(F)F)cc43)nn2C2CCN(C(=O)CCOCCNc3ccc4c(c3)C(=O)N(C3CCC(=O)NC3=O)C4=O)CC2)C1` (centres unmarked) [P-008, 3-(7-(Difluoromethyl)-6-(1-methyl-1H-pyrazol-4-yl)-3,4-dihydroquinolin-1(2H)-yl)-1-(1-(3-(2-((2-(2,6-dioxopiperidin-3-yl)-1,3-dioxoisoindolin-5-yl)amino)ethoxy)propanoyl)piperidin-4-yl)-N-methyl-1,4,6,7-tetrahydro-5H-pyrazolo[4,3-c]pyridine-5-carboxamide] yielded an IC50 in the assay on LNCaP cells (CellTiter-Glo (Table 2)) of more than 10 µM. The inhibition at 0.01 µM on P300 [2] (setting [4]) lay in the range of 20 to 50%.

`CNC(=O)N1CCc2c(c(N3CCCc4cc(-c5cnn(CC(=O)NCCOCCNc6ccc7c(c6)C(=O)N(C6CCC(=O)NC6=O)C7=O)c5)c(C(F)F)cc43)nn2C2CCOCC2)C1` (centres unmarked) [P-028, 3-(7-(Difluoromethyl)-6-(1-(2-((2-(2-((2-(2,6-dioxopiperidin-3-yl)-1,3-dioxoisoindolin-5-yl)amino)ethoxy)ethyl)amino)-2-oxoethyl)-1H-pyrazol-4-yl)-3,4-dihydroquinolin-1(2H)-yl)-N-methyl-1-(tetrahydro-2H-pyran-4-yl)-1,4,6,7-tetrahydro-5H-pyrazolo[4,3-c]pyridine-5-carboxamide] showed a 50% inhibitory concentration (IC50) with LNCaP cells (CellTiter-Glo (Table 2)) of 1.04 µM. In addition, the inhibition at 0.01 µM at P300 [2] (setting [4]) is less than 20%.

Take `CNC(=O)N1CCc2c(c(N3CCCc4cc(-c5cnn(C)c5)c(C(F)F)cc43)nn2C2CCN(C(=O)CCCCCOc3cccc4c3CN(C3CCC(=O)NC3=O)C4=O)CC2)C1` (centres unmarked) [P-088, 3-(7-(difluoromethyl)-6-(1-methyl-1H-pyrazol-4-yl)-3,4-dihydroquinolin-1(2H)-yl)-1-(1-(6-((2-(2,6-dioxopiperidin-3-yl)-1-oxoisoindolin-4-yl)oxy)hexanoyl)piperidin-4-yl)-N-methyl-1,4,6,7-tetrahydro-5H-pyrazolo[4,3-c]pyridine-5-carboxamide]: the IC50 in the assay with LNCaP cells (CellTiter-Glo (Table 3)) came out at 0.0055 µM. Further, the inhibition at 0.01 µM at P300 [2] (setting [3]) is more than 80%.

In turn, `CNC(=O)N1CCc2c(c(N3CCCc4cc(-c5cnn(C)c5)c(C(F)F)cc43)nn2C2CCN(C(=O)CCCCNc3cccc4c3n(C)c(=O)n4C3CCC(=O)NC3=O)CC2)C1` (centres unmarked) [P-127, 3-(7-(Difluoromethyl)-6-(1-methyl-1H-pyrazol-4-yl)-3,4-dihydroquinolin-1(2H)-yl)-1-(1-(5-((1-(2,6-dioxopiperidin-3-yl)-3-methyl-2-oxo-2,3-dihydro-1H-benzo[d]imidazol-4-yl)amino)pentanoyl)piperidin-4-yl)-N-methyl-1,4,6,7-tetrahydro-5H-pyrazolo[4,3-c]pyridine-5-carboxamide] yielded an IC50 in the assay on LNCaP cells (CellTiter-Glo (Table 3)) of 0.402 µM. In addition, the inhibition at 0.01 µM at P300 [2] (setting [3]) was 20 to 50%.
